Test results taken from paper PMC4857087, “A potential adjuvant chemotherapeutics, 18β-glycyrrhetinic acid, inhibits renal tubular epithelial cells apoptosis via enhancing BMP-7 epigenetically through targeting HDAC2” (Scientific Reports, 2016).

Tests used:
[1] = target: HDAC2 (Homo sapiens, UniProt Q92769); assay: SPR (Biacore T200, HDAC2 immobilized on CM5 chip, […] Langmuir fit); type: binding
[2] = system: HK2; assay: cells; parameters: species or system mTEC; antiproliferative activity on renal tubular epithelial cells, 48 h; settings: Homo sapiens, HK-2, 48 h
Procedure: GA could be transformed into 18β-glycyrrhetinic acid (18βGA) via biotransformation. At first, compounds GA and 18βGA were evaluated for their antiproliferative activities against mTEC and HK2 cell lines. The cells were allowed to proliferate in the presence of tested material for 48 h, and the results were reported in terms of IC50 values (Supplementary Table S2). […] Thus we chose GA 0.05, 0.1, 0.2, 0.4, 0.8 mM and 18βGA 2.5, 5, 10, 20, 30 μM to further evaluate the roles on KIM-1. […] Thus, 18βGA was chosen to discuss the mechanisms in AKI induced by CP. Cisplatin (CP), glycyrrhizic acid ammonium salt (GA), 18β-glycyrrhetinic acid (18βGA), Dimethyl sulfoxide (DMSO), MTT (3-(4, 5-dimethylthiazol-2-yl)-2, 5-diphenyltetrazoliumbromide) and all other chemicals were obtained from Sigma-Aldrich (St. Louis, MO, USA). BMP-7, KIM-1, Bcl-2 and Bax antibodies were purchased from Santa Cruz (CA, USA). β-actin antibody and secondary antibodies for goat anti-rabbit IgG HRP and rabbit anti-goat IgG HRP were purchased from Bioworld Technology (Nanjing, China). Creatinine (Cr) and Blood Urea Nitrogen (BUN) assay kit were purchased from Siemens (NY, USA).

HDAC2, sequence (Q92769 whole entry): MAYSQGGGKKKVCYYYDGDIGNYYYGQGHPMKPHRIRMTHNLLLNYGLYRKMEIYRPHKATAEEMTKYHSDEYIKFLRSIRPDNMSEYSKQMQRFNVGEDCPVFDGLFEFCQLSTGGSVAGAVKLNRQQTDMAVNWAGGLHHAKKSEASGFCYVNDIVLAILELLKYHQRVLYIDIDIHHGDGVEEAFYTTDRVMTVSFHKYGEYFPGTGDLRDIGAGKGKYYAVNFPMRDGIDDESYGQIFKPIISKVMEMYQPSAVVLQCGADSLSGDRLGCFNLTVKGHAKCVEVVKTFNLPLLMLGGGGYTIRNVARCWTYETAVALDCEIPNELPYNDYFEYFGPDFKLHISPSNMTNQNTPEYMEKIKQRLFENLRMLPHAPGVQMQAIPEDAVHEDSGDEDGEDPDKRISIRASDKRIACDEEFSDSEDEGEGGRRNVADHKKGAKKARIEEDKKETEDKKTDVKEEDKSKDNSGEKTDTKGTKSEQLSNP

CC1(C)[C@@H](O)CC[C@]2(C)[C@H]3C(=O)C=C4[C@@H]5C[C@@](C)(C(=O)O)CC[C@]5(C)CC[C@@]4(C)[C@]3(C)CC[C@@H]12 [18βGA, 18β-glycyrrhetinic acid]
Kd [1]: 0.613 µM | IC50 [2]: 0.073 mM
